Results on 6 compounds are retold here after article PMC8826081, “Three-Carbon Linked Dihydroartemisinin-Isatin Hybrids: Design, Synthesis and Their Antiproliferative Anticancer Activity” (Frontiers in Pharmacology, 2022).

Series [1] concerns A549 lung cancer cells. Nature of the series: MTT antiproliferative activity against A549. It is filed as cell-based. The following applies: Homo sapiens; MTT assay, drug-sensitive A549. The source says:
(§1) 3-(4,5-dimethylthiazol-2-yl)-2,5-diphenyltetrazolium bromide (MTT) assay was used to determined the antiproliferative activity of dihydroartemisinin-isatin hybrids 5a-e and 6a-j with three-carbon linker against A549, multidrug-resistant A549/DOX and A549/DDP lung cancer cell lines as well as cytotoxicity towards normal lung epithelial cell line (BEAS-2B). The inhibitory effects were expressed in terms of half maximal inhibitory concentration (IC50) values.
(§2) A549, A549/DOX, and A549/DDP lung cancer cells (2×10^3) were plated in each well of a 96-well plate and were allowed to adhere and spread for 24 h. The […] were added to a final concentration of 100 µM, and the cells were cultured for 24 h at 37 °C. 3-(4,5-dimethyl-2-thiazolyl)-2,5-diphenyltetrazolium bromide (MTT) solution (10 µL) was added to each well, and the cultures were incubated for an additional 4 h. A further 100 µL of […] was added and incubation continued overnight. The absorbance at 540 nm was determined in each well with a 96-well plate reader. The growth of the treated cells was compared with that of untreated cells.
For orientation: Tetrazolium assays rely on reduction of a dye to a coloured formazan, in cell work by metabolically active cells.

The subject of series [2] is A549/DOX (doxorubicin-resistant A549 cells). Nature of the series: MTT antiproliferative activity against doxorubicin-resistant A549. In kind it is cell-based. As to conditions: for IC50: Homo sapiens, MTT assay, doxorubicin-resistant A549 cells.
Text: as §1, §2

Series [3] deals with A549/DDP (cisplatin-resistant A549 cells). Briefly: MTT antiproliferative activity against cisplatin-resistant A549. The following applies: for IC50: Homo sapiens, MTT assay, cisplatin-resistant A549 cells. It is filed as cell-based.
Text: as §1, §2

Series [4] is described as follows: in vitro. As to conditions: human. The method, then: as §1
(§3) The compounds were dissolved in DMSO with concentrations from 1024 to 1 μg/mL. The NIH/3T3 cells were maintained in culture medium at 37 °C under 5% CO2 atmosphere. Cells were seeded in 96-well plates (1×10^4 cell per well) and allowed to recover for 24 h. After 72 h of exposure, cells were harvested and cell viability was assessed by MTT assay. The CC50 values were calculated by Bliss analysis.

The test system of series [5] is BEAS-2B normal lung epithelial cell line. Briefly: MTT cytotoxicity towards normal lung epithelial cells. The following applies: IC50(BEAS-2B)/IC50(A549). The method, then: as §1, §3
A short description of series [6]: Metabolic stability in mouse liver microsomes. In kind it is in vitro ADME. As to conditions: in vitro stability.
Series [7] can be described thus: Metabolic stability in human liver microsomes. In kind it is in vitro ADME. The following applies: in vitro stability. (Liver microsomes are a subcellular fraction often used to study metabolism.)
Series [8] in a line: Pharmacokinetic properties in CD-1 mice. In kind it is in vivo. As to conditions: mouse, plasma; for bioavailability: 30 mg/kg, read-out: F (bioavailability); for AUC / Cmax / clearance / half-life / Tmax: single intravenous dose of 30 mg/kg; for Tmax: read-out: tmax (peak time) (converted). The method, then:
CD-1 mice model was administered with single intravenous […]) dose of 30 mg/kg to test the pharmacokinetic properties of hybrid 6a, e.
CD-1 mice mice (20-25 g) were used in the pharmacokinetic study, and each treatment group had 3 mice which were dosed with […] suspension at 30 mg/kg by single intravenous (iv) administration. Compounds were suspended in 0.5% CMC for iv, and blood was collected from the jugular vein of each mouse at the following time points: 0.25, 0.5, 1, 2, 4, 6, 8 and 24 h after […] administration. Total area under the concentration time curve (AUC), the elimination half-time (t1/2), the peak concentration (Cmax) and the time to reach peak concentration (Tmax) of samples were determined directly from the experimental data using WinNonlin V6.2.1.

Series [9] deals with A549, A549/DOX and A549/DDP lung cancer cell lines. Nature of the series: MTT antiproliferative activity, summarised over the three lung cancer cell lines. In kind it is cell-based. The following applies: for IC50: MTT assay, span of values over the three lung cancer cell lines, read-out: IC50 (range over A549, A549/DOX and A549/DDP); for times superior to cisplatin and doxorubicin: against multidrug-resistant A549/DOX and A549/DDP; for RI (drug resistance index: IC50(MDR A549)/IC50(A549)): span over RI1 and RI2.
Text: as §1, §2

The structures appear in SMILES notation. Bounds are passed on as bounds.

In general, bioavailability refers to the share of a dose that reaches the circulation, judged against a reference dose that is usually intravenous. The AUC is the area under the concentration-time curve, a measure of exposure. For orientation: Cmax means the highest concentration seen after dosing. In general, clearance refers to a measure of how efficiently the substance is removed, as volume per time. Read a high clearance as a high capacity for elimination. What is called half-life is how long it takes for the measured level to halve. A lower half-life goes with rapid decline. One may read the Tmax as the time at which the peak concentration occurs.

`C[C@@H]1CC[C@H]2[C@@H](C)C(OCCCN3C(=O)C(=NO)c4ccccc43)O[C@@H]3O[C@@]4(C)CC[C@@H]1[C@]32OO4` (stereo partly drawn) [6a, 3-(hydroxyimino)-1-(3-(((3R,5aS,6R,8aS,9R,12R,12aR)-3,6,9-trimethyldecahydro-12H-3,12-epoxy[1,2]dioxepino[4,3-i]isochromen-10-yl)oxy)propyl)indolin-2-one]: in series [1], the IC50 stood at 5.72 µM. Besides, in [2], the IC50 was 7.35 µM and the “RI1 (Resistance index: IC50(A549/DOX)/IC50(A549))” value worked out at 1.28. Also, the IC50 in series [3] was found to be 9.84 µM. This compound also yielded an IC50 in series [4] of over 100 µM. For the same compound, the “SI (Selectivity index: IC50(BEAS-2B)/IC50(A549))” value in series [5] is given as over 17.4. Besides, in [6], the “Liver microsomes Mouse” value is listed as 70%. Moreover, the “Liver microsomes Human” value in series [7] is 62%. In series [8], the bioavailability turned out to be 39.7%, the AUC came out at 2350 ng·h/mL, the peak level (Cmax) was 18.9 µM and the clearance is 62.3 mL/min/kg. In [8], the half-life is 3.1 h and the Tmax was 0.267 h. In series [9], the IC50 lay in the range of 5.72 to 9.84 µM; the “times superior to cisplatin and doxorubicin” value was 1.5–10.8 times; the “RI (drug resistance index: IC50(MDR A549)/IC50(A549))” value is given as 1.03–1.66.

Regarding `C[C@H]1[C@@H](O)O[C@@H]2O[C@@]3(C)CC[C@H]4[C@H](C)CC[C@@H]1[C@@]24OO3` [DHA, Dihydroartemisinin], the IC50 in series [1] is 69.4 µM; in series [2], 88 µM; in series [3], 75.9 µM; in series [4], over 100 µM; in series [9], 69.4 to 88 µM. In addition, the “RI1 (Resistance index: IC50(A549/DOX)/IC50(A549))” value in [2] was determined as 1.27. Besides, the “RI2 (Resistance index: IC50(A549/DDP)/IC50(A549))” value in [3] was 1.09. Besides, the “SI (Selectivity index: IC50(BEAS-2B)/IC50(A549))” value in series [5] is listed as over 1.4.

`C[C@@H]1CC[C@H]2[C@@H](C)C(OCCCN3C(=O)C(=NNC(N)=S)c4cc(F)ccc43)O[C@@H]3O[C@@]4(C)CC[C@@H]1[C@]32OO4` (stereo partly drawn) [6e, 2-(5-fluoro-2-oxo-1-(3-(((3R,5aS,6R,8aS,9R,12R,12aR)-3,6,9-trimethyldecahydro-12H-3,12-epoxy[1,2]dioxepino[4,3-i]isochromen-10-yl)oxy)propyl)indolin-3-ylidene)hydrazine-1-carbothioamide]: the IC50 in [1] was 5.99 µM. For the same compound, in [2], the IC50 was determined as 8.93 µM and the “RI1 (Resistance index: IC50(A549/DOX)/IC50(A549))” value came to 1.49. Further, in series [3], the IC50 is 6.17 µM and the “RI2 (Resistance index: IC50(A549/DDP)/IC50(A549))” value came out at 1.03. The compound also showed an IC50 in series [4] of over 100 µM. In series [5], the “SI (Selectivity index: IC50(BEAS-2B)/IC50(A549))” value was over 16.6. Also, the “Liver microsomes Mouse” value in series [6] was 54%. For the same compound, the “Liver microsomes Human” value in series [7] stood at 51%. In [8], the bioavailability stood at 30.8%, the exposure (AUC) was found to be 1670 ng·h/mL, the concentration peaked (Cmax) at 10.7 µM and the clearance is 44.8 mL/min/kg. In series [8], the half-life was 4.7 h and the Tmax is 0.2 h. In addition, in series [9], the IC50 lay in the range of 5.72 to 9.84 µM; the “times superior to cisplatin and doxorubicin” value is recorded as 1.5–10.8 times; the “RI (drug resistance index: IC50(MDR A549)/IC50(A549))” value is 1.03–1.66.

Turning to `C[C@@H]1CC[C@H]2[C@@H](C)C(OCCCN3C(=O)C(=O)c4cc(Cl)ccc43)O[C@@H]3O[C@@]4(C)CC[C@@H]1[C@]32OO4` (stereo partly drawn) [5c, 5-chloro-1-(3-(((3R,5aS,6R,8aS,9R,12R,12aR)-3,6,9-trimethyldecahydro-12H-3,12-epoxy[1,2]dioxepino[4,3-i]isochromen-10-yl)oxy)propyl)indoline-2,3-dione], the IC50 was 53.6 µM in [1], 49.7 µM in [2], 79.8 µM in series [3] and over 100 µM in series [4]. Moreover, in series [2], the “RI1 (Resistance index: IC50(A549/DOX)/IC50(A549))” value came out at 0.93. Also, the “RI2 (Resistance index: IC50(A549/DDP)/IC50(A549))” value in [3] turned out to be 1.49. Also, the “SI (Selectivity index: IC50(BEAS-2B)/IC50(A549))” value in series [5] is over 1.8.

Turning to `C[C@@H]1CC[C@H]2[C@@H](C)C(OCCCN3C(=O)C(=NNC(N)=S)c4ccccc43)O[C@@H]3O[C@@]4(C)CC[C@@H]1[C@]32OO4` (stereo partly drawn) [6c, 2-(2-oxo-1-(3-(((3R,5aS,6R,8aS,9R,12R,12aR)-3,6,9-trimethyldecahydro-12H-3,12-epoxy[1,2]dioxepino[4,3-i]isochromen-10-yl)oxy)propyl)indolin-3-ylidene)hydrazine-1-carbothioamide], the IC50 in [1] was 23.2 µM; in [2], 36.6 µM; in series [3], 28.8 µM; in series [4], over 100 µM. In addition, in series [2], the “RI1 (Resistance index: IC50(A549/DOX)/IC50(A549))” value was 1.57. For the same compound, in series [3], the “RI2 (Resistance index: IC50(A549/DDP)/IC50(A549))” value was determined as 1.24. Moreover, the “SI (Selectivity index: IC50(BEAS-2B)/IC50(A549))” value in series [5] was over 4.3.

Take `C[C@@H]1CC[C@H]2[C@@H](C)C(OCCCN3C(=O)C(=NO)c4cc(Cl)ccc43)O[C@@H]3O[C@@]4(C)CC[C@@H]1[C@]32OO4` (stereo partly drawn) [6f, 5-chloro-3-(hydroxyimino)-1-(3-(((3R,5aS,6R,8aS,9R,12R,12aR)-3,6,9-trimethyldecahydro-12H-3,12-epoxy[1,2]dioxepino[4,3-i]isochromen-10-yl)oxy)propyl)indolin-2-one]: the IC50 is 24.7 µM in series [1], 26.9 µM in [2], 31.9 µM in series [3] and over 100 µM in series [4]. Besides, in series [2], the “RI1 (Resistance index: IC50(A549/DOX)/IC50(A549))” value came to 1.08. Further, the “RI2 (Resistance index: IC50(A549/DDP)/IC50(A549))” value in [3] was found to be 1.29. Also, the “SI (Selectivity index: IC50(BEAS-2B)/IC50(A549))” value in [5] is recorded as over 4.0.
